We go through one compound from PubChem BioAssay AID743031 (The Scripps Research Institute Molecular Screening Center, 2013).

Experiment [1] relates to Mouse Plasma. Description: mouse brain penetration after oral dosing – LC-MS/MS, powder samples, in vivo study for V1a-R antagonist project, late-stage follow-up (AID 743031). The following applies: C57Bl6 mouse, 10 mg/kg PO, LC-MS/MS at 60 min, 60 min after 10 mg/kg PO.
Experiment [2] deals with Mouse Brain. The description is as above. The following applies: C57Bl6 mouse, 10 mg/kg PO, LC-MS/MS at 60 min, 60 min after 10 mg/kg PO.
Where [3] appears, read: brain to plasma ratio, stronger effect = higher value.

For `O=C(C1CCN(c2ccc(Cl)cn2)CC1)N(CC1CC1)c1ccc(Cl)cc1`, the compound concentration is 2.56 µM in experiment [1] and 3.27 µM in experiment [2]. Further, the brain/plasma ratio in experiment [1] (setting [3]) and in experiment [2] (setting [3]) was 1.28 in each case.
